Measurements taken from publication PMC4433859 (Journal of immunology (Baltimore, Md. : 1950), 2015).
Where no end group is shown, it is not given here.

Assays:
HLA-B*42:01 = HLA-B*42:01 (Homo sapiens, UniProt P01889, D138N/E176V/E187T/K202T/R180D); experiment: biochemical; format: binding
[1] = system: HIV-specific CD8^+ T-cell responses; experiment: IFNγ ELISpot with overlapping and optimal peptides; format: cell-based, human; conditions: IFNγ ELISpot responders among HLA-B*42:01^+ individuals, stratified for lack of HLA-B*07:02/39:10/42:02/81:01 co-expression (n=154)

Sequence	Kd (HLA-B*42:01)	targeting frequency [1]
IIKDYGKQM [Int-IM9]	19 nM	
KVVPRRKAKIIKDYGKQM [Int-275]		53%
